Several values for one entry are separate records, joined by “and”; a condition that tells them apart may be missing. Identical values can stand only once. Inconclusive results and toxic doses are left out. Rule for the calls: active = survival T/C of 150% or more; inactive = T/C below 125% in these data. Square brackets hold non-standard residues; d marks the D form. Peptide text beside a SMILES is read from it. Abu = CC[CH](N)C(=O)O
System: BDF1 mice, B16 melanoma ip, median survival T/C
Test: NCI In Vivo Anticancer Drug Screen. Data for tumor model B16 Melanoma (intraperitoneal) in B6D2F1 (BDF1) mice
Conditions: endpoint: median survival time, higher = longer survival
Outline: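 Read-out: survival or tumor size, given as treated/control ratio. Controls received vehicle only; animals bore transplantable tumors.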

[1] = dose: 12.5 mg/kg/injection, schedule: Q01DX009 (ip), vehicle: saline with Tween-80
[2] = dose: 25.0 mg/kg/injection, schedule: Q01DX009 (ip), vehicle: saline with Tween-80
[3] = dose: 100.0 mg/kg/injection, schedule: Q01DX009 (ip), vehicle: saline with Tween-80
[4] = dose: 200.0 mg/kg/injection, schedule: Q01DX009 (ip), vehicle: saline with Tween-80
[5] = dose: 50.0 mg/kg/injection, schedule: Q01DX009 (ip), vehicle: saline with Tween-80
[6] = dose: 50.0 mg/kg/injection, schedule: Q01DX009 (ip), vehicle: water
[7] = dose: 100.0 mg/kg/injection, schedule: Q01DX009 (ip), vehicle: water
[8] = dose: 100.0 mg/kg/injection, schedule: Q01DX009 (ip), vehicle: Klucel (hydroxypropylcellulose) (HPC)
[9] = dose: 12.5 mg/kg/injection, schedule: Q01DX009 (ip), vehicle: water
[10] = dose: 25.0 mg/kg/injection, schedule: Q01DX009 (ip), vehicle: water
[11] = dose: 6.25 mg/kg/injection, schedule: Q01DX009 (ip), vehicle: saline with Tween-80
[12] = dose: 6.25 mg/kg/injection, schedule: Q04DX003 (ip), vehicle: saline
[13] = dose: 50.0 mg/kg/injection, schedule: Q01DX009 (ip), vehicle: Klucel (hydroxypropylcellulose) (HPC)
[14] = dose: 100.0 mg/kg/injection, schedule: Q04DX003 (ip), vehicle: saline with Tween-80
[15] = dose: 200.0 mg/kg/injection, schedule: Q04DX003 (ip), vehicle: saline with Tween-80

Measured: T/C

O=C(O)c1c(Cl)cccc1Cl
inactive: [1] 105 % of control | [2] 95 % of control | dose: 25.0 mg/kg/injection, schedule: Q04DX003 (ip), vehicle: saline with Tween-80 105 % of control | dose: 50.0 mg/kg/injection, schedule: Q04DX003 (ip), vehicle: saline with Tween-80 97 % of control

CC/C(C)=C(/C(=O)O)c1ccccc1
inactive: [3] 110 % of control | [4] 94 % of control

CC1(C)SC2C(NC(=O)C(N)c3ccccc3)C(=O)N2C1C(=O)O (stereo not drawn)
inactive: [3] 100 % of control | [4] 95 % of control | dose: 400.0 mg/kg/injection, schedule: Q01DX009 (ip), vehicle: saline with Tween-80 90 % of control

Nc1nccnc1N
inactive: [5] 102 % of control | [3] 88 % of control

CN(C)CCSc1cc(O)c2c(c1O)C(=O)c1ccccc1C2=O
inactive: [6] 94 % of control | [7] 102 % of control

O=C(O)C1CCCCC1C(=O)Nc1ccc(F)cc1 (stereo not drawn)
inactive: [2] 105 % of control | [5] 105 % of control | [3] 88 % of control and 96 % of control

Cc1ccc(NC(=O)Nc2cccc(Cl)c2)cc1C
inactive: [8] 86 % of control | dose: 100.0 mg/kg/injection, schedule: Q04DX003 (ip), vehicle: Klucel (hydroxypropylcellulose) (HPC) 92 % of control | dose: 200.0 mg/kg/injection, schedule: Q01DX009 (ip), vehicle: Klucel (hydroxypropylcellulose) (HPC) 86 % of control | dose: 200.0 mg/kg/injection, schedule: Q04DX003 (ip), vehicle: Klucel (hydroxypropylcellulose) (HPC) 92 % of control | dose: 400.0 mg/kg/injection, schedule: Q01DX009 (ip), vehicle: Klucel (hydroxypropylcellulose) (HPC) 86 % of control | dose: 400.0 mg/kg/injection, schedule: Q04DX003 (ip), vehicle: Klucel (hydroxypropylcellulose) (HPC) 92 % of control

CC(C)(O)C(C)(O)c1ccc(Cl)cc1 (stereo not drawn)
inactive: [1] 88 % of control | [2] 91 % of control | [5] 103 % of control | [3] 104 % of control | [4] 92 % of control

CCCCCCCCN(C)/N=N/c1nc[nH]c1C(N)=O
inactive: dose: 37.5 mg/kg/injection, schedule: Q01DX009 (ip), vehicle: saline with Tween-80 121 % of control | dose: 75.0 mg/kg/injection, schedule: Q01DX009 (ip), vehicle: saline with Tween-80 123 % of control

C/C=C(\C)C(=O)N/N=C\c1cc(Cl)cc(Cl)c1O
inactive: dose: 25.0 mg/kg/injection, schedule: Q01DX009 (ip), vehicle: olive oil, sesame oil, peanut oil 88 % of control | dose: 100.0 mg/kg/injection, schedule: Q01DX009 (ip), vehicle: olive oil, sesame oil, peanut oil 89 % of control | dose: 200.0 mg/kg/injection, schedule: Q01DX009 (ip), vehicle: olive oil, sesame oil, peanut oil 86 % of control

CNNCc1ccc(/C=N/NC(N)=S)cc1
inactive: [9] 105 % of control | [10] 100 % of control | [6] 99 % of control | [7] 97 % of control

CCC(N)C(=O)NC(C(N)=O)C(C)C (stereo not drawn) (H-[Abu]-Val-NH2; configuration not given here)
inactive: dose: 50.0 mg/kg/injection, schedule: Q01DX009 (ip), vehicle: saline 90 % of control | dose: 100.0 mg/kg/injection, schedule: Q01DX009 (ip), vehicle: saline 100 % of control | dose: 200.0 mg/kg/injection, schedule: Q01DX009 (ip), vehicle: saline 110 % of control | dose: 400.0 mg/kg/injection, schedule: Q01DX009 (ip), vehicle: saline 100 % of control

CC(=O)Nc1ccc2c(ccc3ccccc32)c1
inactive: [2] 90 % of control | [5] 102 % of control | [3] 89 % of control

Cc1ccc(NC(=O)Nc2cccc(Cl)c2C)cc1NC(=O)Nc1cccc(Cl)c1C
inactive: [11] 94 % of control | [1] 86 % of control | [2] 88 % of control

CC(C)N(C(=O)c1ccc(C(=O)N(c2ccccc2)C(C)C)cc1)c1ccccc1
inactive: [1] 103 % of control | [2] 99 % of control | [5] 99 % of control

CC(C)(C)OC(=O)NCCCCC(NC(=O)OCc1ccccc1)C(=O)ON1C(=O)CCC1=O (stereo not drawn)
inactive: [5] 98 % of control | [3] 92 % of control | [4] 87 % of control

CCCCCCCCC(=O)N(C)OC
inactive: dose: 3.13 mg/kg/injection, schedule: Q04DX003 (ip), vehicle: saline 107 % of control | [12] 121 % of control | dose: 12.5 mg/kg/injection, schedule: Q04DX003 (ip), vehicle: saline 105 % of control

COc1cc(O)c2c(c1)C(=O)c1cc3c(c(O)c1C2=O)C(OC1OC(C)C(O)C(O)C1OC)C(OC)C(C)(O)C3=O (stereo not drawn)
inactive: [13] 117 % of control | [8] 96 % of control

COc1ccc(CCN2C(=O)CSC2=S)cc1OC
inactive: dose: 25.0 mg/kg/injection, schedule: Q01DX009 (ip), vehicle: Klucel (hydroxypropylcellulose) (HPC) 100 % of control | [13] 88 % of control | [5] 94 % of control and 98 % of control | [8] 89 % of control and 94 % of control | [3] 104 % of control | [14] 89 % of control | [4] 90 % of control and 94 % of control | [15] 94 % of control

O=C(OCc1ccccc1)C(=O)OCc1ccccc1
inactive: [3] 121 % of control | [14] 100 % of control | [15] 107 % of control

CCC(C)C#N (stereo not drawn)
inactive: dose: 5.0 mg/kg/injection, schedule: Q01DX009 (ip), vehicle: saline 97 % of control | dose: 10.0 mg/kg/injection, schedule: Q01DX009 (ip), vehicle: saline 95 % of control | dose: 20.0 mg/kg/injection, schedule: Q01DX009 (ip), vehicle: saline 100 % of control

Cc1cc([N+](=O)[O-])c(S(N)(=O)=O)c([N+](=O)[O-])c1
inactive: dose: 6.25 mg/kg/injection, schedule: Q01DX009 (ip), vehicle: water 110 % of control | [9] 100 % of control | [10] 101 % of control | [6] 103 % of control | [7] 101 % of control

O=C1C(Cl)=C(N=Nc2c(Cl)c(O)c3ccccc3c2O)C(=O)c2ccccc21
inactive: dose: 12.5 mg/kg/injection, schedule: Q01DX009 (ip), vehicle: saline 89 % of control | dose: 25.0 mg/kg/injection, schedule: Q01DX009 (ip), vehicle: saline 86 % of control

COc1cc(OC)c(/C=C/c2c3ccccc3cc[n+]2C)c(OC)c1
inactive: dose: 0.78 mg/kg/injection, schedule: Q01DX009 (ip), vehicle: saline with Tween-80 97 % of control | dose: 1.56 mg/kg/injection, schedule: Q01DX009 (ip), vehicle: saline with Tween-80 102 % of control

NC(=O)c1ccc(N)nc1
inactive: dose: 0.09 mg/kg/injection, schedule: Q01DX009 (ip), vehicle: saline 100 % of control | dose: 0.18 mg/kg/injection, schedule: Q01DX009 (ip), vehicle: saline 86 % of control and 107 % of control | dose: 0.37 mg/kg/injection, schedule: Q01DX009 (ip), vehicle: saline 113 % of control and 114 % of control | dose: 0.75 mg/kg/injection, schedule: Q01DX009 (ip), vehicle: saline 102 % of control | dose: 1.5 mg/kg/injection, schedule: Q01DX009 (ip), vehicle: saline 112 % of control and 115 % of control | dose: 2.0 mg/kg/injection, schedule: Q01DX009 (ip), vehicle: saline 100 % of control | dose: 3.12 mg/kg/injection, schedule: Q04DX003 (ip), vehicle: saline 111 % of control | [12] 107 % of control

CO[C@@H]1[C@H](O)CC[C@]2(CO2)[C@H]1[C@@]1(C)O[C@@H]1CC=C(C)C
inactive: dose: 3.13 mg/kg/injection, schedule: Q01DX009 (ip), vehicle: saline with Tween-80 104 % of control | [11] 102 % of control | [1] 102 % of control | [2] 108 % of control | [5] 123 % of control
